{
  "source": "patent US20240287463A1",
  "about": "“INDUCIBLE TISSUE CONSTRUCTS AND USES THEREOF” (Massachusetts Institute of Technology, priority 2020, published 2024)",
  "key": {"[1]": {"tested_on": "primary human hepatocytes", "assay": "hepatocyte phenotypic stability (albumin production) in MPCC after fibroblast deletion", "type": "cell-based", "settings": "CID at day 1, day 3 or day 7 of 2D MPCC", "text": "Specifically, MPCC were fabricated as described previously (S. R. Khetani and S. N. Bhatia (2005) Nat. Biotechnol 26, 120; S. March et al. (2015) Nat. Protoc. 10, 2007). Briefly, collagen was adsorbed in each well of a 96 well plate (glass bottom), and then patterned using an elastomeric polydimethysiloxane mold and oxygen plasma gas ablation. Human hepatocytes were thawed and seeded (70 k/well) on the collagen islands (500 μm with 1,200 μm center-to-center spacing). Adhered hepatocytes (˜10 k/well) were allowed to spread overnight before fibroblasts were seeded for co-culture (7 k/well). Supernatant was collected from cultures every other day and stored at −20° C. Human albumin was quantified using an enzyme-linked immunosorbent assay using a sheep anti-rat albumin antibody (ELISA) (Bethyl Laboratories) and 3,3′,5,5′-tetramethylbenzidine (TMB, Thermo Fisher). Urea concentration was measured using a colorimetric (diacetylmonoxime) assay with acid and heat (Stanbio Labs). CYP3A4 activity was assessed with the luminogenic P450-GloTM CYP450 assay kit (Promega) for nonlytic assays using cultured cells. […]\nTo query the dependence of hepatocytes on fibroblasts, fibroblasts were deleted from MPCCs by CID treatment at various time points and albumin production was assessed as a surrogate marker of phenotypic stability."}, "[2]": {"tested_on": "primary human hepatocytes", "assay": "hepatocyte function and toxicity in 3D spheroid-laden hydrogels after fibroblast deletion", "type": "cell-based", "text": "Specifically, MPCC were fabricated as described previously (S. R. Khetani and S. N. Bhatia (2005) Nat. Biotechnol 26, 120; S. March et al. (2015) Nat. Protoc. 10, 2007). Briefly, collagen was adsorbed in each well of a 96 well plate (glass bottom), and then patterned using an elastomeric polydimethysiloxane mold and oxygen plasma gas ablation. Human hepatocytes were thawed and seeded (70 k/well) on the collagen islands (500 μm with 1,200 μm center-to-center spacing). Adhered hepatocytes (˜10 k/well) were allowed to spread overnight before fibroblasts were seeded for co-culture (7 k/well). Supernatant was collected from cultures every other day and stored at −20° C. Human albumin was quantified using an enzyme-linked immunosorbent assay using a sheep anti-rat albumin antibody (ELISA) (Bethyl Laboratories) and 3,3′,5,5′-tetramethylbenzidine (TMB, Thermo Fisher). Urea concentration was measured using a colorimetric (diacetylmonoxime) assay with acid and heat (Stanbio Labs). CYP3A4 activity was assessed with the luminogenic P450-GloTM CYP450 assay kit (Promega) for nonlytic assays using cultured cells. Cultures were pre-treated with 2 μM rifampin or 1:1,000 DMSO vehicle control prepared in hepatocyte maintenance media for 72 hours (daily replenishment) where indicated.\nPrevious work identified that phenotypic stability and longevity of primary hepatocytes cultured as 3D microtissues were transiently supported by pre-aggregation to increase homotypic cell-cell interactions, and were further enhanced upon inclusion of J2 fibroblasts (C. Y. Li et al. (2014) Tissue Eng. Part A 20, 2200). Thus, iCasp9-GFP J2 fibroblasts were incorporated into these 3D hepatic ensembles, which were fabricated by plating primary human hepatocytes and fibroblasts in microwells in order to facilitate physical cell-cell contacts, as previously described (K. Stevens et al. (2013) Nat. Commun. 4, 1847; K. R. Stevens et al. (2017) Sci. Transl. Med. 9, eaaah5505). Specifically, cryopreserved 365 human hepatocytes were thawed and immediately plated with fibroblasts in AggreWells (400 μm pyramidal microwells) and incubated overnight. Hepatic spheroids (about 150 hepatocytes per spheroid, ˜100 μm diameter) were imaged and analyzed to quantify the extent of spheroid compaction. Individual spheroids were isolated manually using Fiji, (J. Schindelin et al. (2012) Nat. Methods 9, 676). […] Resulting morphologies were traced and measured for circularity. […]\nTo probe the dependence of hepatocyte phenotypic stability on fibroblast co-culture in 3D, fibroblasts were deleted from spheroid-laden hydrogel cultures using CAMEO after 1 day of hepatocyte-fibroblast co-culture. Fibroblasts were robustly removed from 3D co-cultures as described in the above Examples, and detected by immunofluorescence imaging (FIG. 3I). […]"}, "HUVECs": {"tested_on": "HUVECs", "assay": "vascular network in HUVEC/iCasp9-HLF microfluidic devices after fibroblast removal", "type": "cell-based, human", "settings": "iCasp9-HLFs removed after only 3 days of co-culture"}, "[3]": {"tested_on": "implanted hepatocyte tissue constructs", "assay": "human albumin in plasma of mice implanted with hepatocyte/iCasp9-HDF/HUVEC constructs (ELISA)", "type": "in vivo", "settings": "10 mg/kg on days 5 and 6 post-implantation, plasma at day 7", "protocol": "Following the confirmation of vessel maintenance and anastomosis and ability to induce death of implanted fibroblasts in vivo, hepatocyte function was evaluated in implanted hepatocyte tissue constructs. Specifically, mice were implanted with hepatocyte/iCasp9-HDF/HUVEC tissue constructs after in vitro culture for 7 days. Constructs were implanted in mouse fat pads as described above, and treated with 10 mg/kg CID or vehicle on days 5 and 6 post-implantation. At day 7, blood was collected and centrifuged to isolate plasma."}},
  "data": [
    {"molecule": "CC[C@H](C(=O)N1CCCC[C@H]1C(=O)O[C@H](CCc1ccc(OC)c(OC)c1)c1cccc(OCC(=O)NCC(CNC(=O)COc2cccc([C@@H](CCc3ccc(OC)c(OC)c3)OC(=O)[C@@H]3CCCCN3C(=O)[C@@H](CC)c3cc(OC)c(OC)c(OC)c3)c2)CN(C)C)c1)c1cc(OC)c(OC)c(OC)c1", "note": "[CID, AP20187]", "values": [
      {"measurement": "hepatocyte phenotypic stability (albumin production)", "setting": "[1]", "value": "loss of hepatocyte phenotypic stability"},
      {"measurement": "hepatocyte function", "setting": "[2]; 50 nM CID after 3 or 7 days of co-culture", "value": "negatively impacted"},
      {"measurement": "hepatocyte phenotype by albumin secretion rate", "setting": "[2]; CID after 1 day of co-culture, followed up to 3 weeks", "value": "stable phenotype"},
      {"measurement": "hepatocyte function, CID pre- versus post-encapsulation in fibrin", "setting": "[2]; data not shown", "value": "No difference"},
      {"measurement": "toxicity to co-cultured hepatocytes", "setting": "[2]; spheroid-laden hydrogel cultures, data not shown", "value": "without any apparent toxicity"},
      {"measurement": "self-assembly of HUVECs at day 7", "setting": "HUVECs", "value": "able to self-assemble into perfusable vasculature"},
      {"measurement": "human albumin secretion compared to vehicle control and in vitro CID treated constructs", "setting": "[3]", "value": "similar"}
    ]}
  ]
}
